Consider two compounds from ChEMBL document CHEMBL1127666, “Phosphonate analogs of carbocyclic nucleotides” (J Med Chem, 1994).

The test system of this test is HEp-2. Description: Cytotoxicity to human epidermoid carcinoma cells (HEP-2). The test is classed as functional, cell-based.

What is called IC50 is the concentration at which inhibition is half-maximal. Low readings indicate greater potency, high ones weaker potency. Consider `Nc1nc(O)c2ncn([C@@H]3C[C@H](CO)[C@@H](O)C3)c2n1`, for which half-maximal inhibition (IC50) was put at 95 µM.

The compound `Nc1nc(O)c2ncn(C3CC(O)C(OCP(=O)(O)O)C3)c2n1` (configuration not stated) gave an IC50 of 2.4 µM.
